Results: PubChem BioAssay (NCI)
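Compound exposure: 48 hours, 5 concentrations, 96-well plates. At the GI50, growth is halved. At the TGI there is no net growth.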 Where a SMILES comes first, the peptide text is derived from it. Bridges are numbered along the chain shown (N, C = ends). Roman numbers before positions name the chains, in order. [ ]: non-standard residue; d: D form. The star is where a group is joined. Quinoxaline2carbonyl = O=C(c1cnc2ccccc2n1)*; NMeV = CN[CH](C(=O)O)C(C)C; NMeC = CN[CH](CS)C(=O)O

Experiments:
Assay in all cases: inhibition of tumour cell growth, NCI panel, 48 h
A549 NSCLC = system: A549 NSCLC
IGROV1 ovarian = system: IGROV1 ovarian
LOX IMVI melanoma = system: LOX IMVI melanoma
SK-OV-3 ovarian = system: SK-OV-3 ovarian
SN12C renal = system: SN12C renal
SNB-75 CNS = system: SNB-75 CNS
U251 CNS = system: U251 CNS
DU-145 prostate = system: DU-145 prostate
HS 578T breast = system: HS 578T breast
NCI/ADR-RES ovarian = system: NCI/ADR-RES ovarian

| SMILES | TGI (A549 NSCLC) | TGI (IGROV1 ovarian) | TGI (LOX IMVI melanoma) | TGI (SK-OV-3 ovarian) | TGI (SN12C renal) | TGI (SNB-75 CNS) | TGI (U251 CNS) | GI50 (A549 NSCLC) | GI50 (DU-145 prostate) | TGI (DU-145 prostate) | GI50 (HS 578T breast) | TGI (HS 578T breast) | GI50 (IGROV1 ovarian) | GI50 (LOX IMVI melanoma) | GI50 (NCI/ADR-RES ovarian) | TGI (NCI/ADR-RES ovarian) | GI50 (SK-OV-3 ovarian) | GI50 (SN12C renal) | GI50 (U251 CNS) | GI50 (SNB-75 CNS) |
| --- | --- | --- | --- | --- | --- | --- | --- | --- | --- | --- | --- | --- | --- | --- | --- | --- | --- | --- | --- | --- |
| Cc1ccc(S(=O)OC2C3CC4CC(C3)CC2C4)cc1 (stereo unspecified) | > 100 µM | > 100 µM | > 100 µM | > 100 µM | > 100 µM | > 100 µM | > 100 µM |  |  |  |  |  |  |  |  |  |  |  |  |  |
| O=P1(Oc2ccccc2)C(c2ccccc2)C(c2ccccc2)=NN1c1ccccc1 (stereo unspecified) | 93.8 µM | 69.9 µM | 31.6 µM | 54.4 µM | 94.3 µM | > 100 µM | 42.2 µM |  |  |  |  |  |  |  |  |  |  |  |  |  |
| C[CH2][Pb]([CH2]C)([CH2]C)[O]C(=O)c1ccc2ccccc2n1 | > 10 µM | > 10 µM | > 10 µM | > 10 µM | > 10 µM |  | > 10 µM | > 10 µM | > 10 µM | > 10 µM | > 10 µM | > 10 µM | > 10 µM | > 10 µM | > 10 µM | > 10 µM | > 10 µM | > 10 µM | > 10 µM |  |
| CN(C)c1ccc(N=Nc2ccncc2)cc1 | > 100 µM | > 100 µM | > 100 µM | > 100 µM | > 100 µM |  | > 100 µM |  |  | > 100 µM |  | > 100 µM |  |  |  | > 100 µM |  |  |  |  |
| O=C([CH-]C(=O)c1ccccc1)c1ccccc1.O=C([CH-]C(=O)c1ccccc1)c1ccccc1.[OH-].[OH-].[Ti+4] | > 100 µM | > 100 µM |  | > 100 µM | > 100 µM | > 100 µM | > 100 µM | > 100 µM |  |  |  |  | > 100 µM |  |  |  | 75.6 µM | > 100 µM | 18.1 µM | 49.1 µM |
| CC1(C)CCC[C@]2(C)[C@@H](C=O)C(C=O)=CC[C@@H]12 | > 100 µM | 44.4 µM | 42.2 µM | > 100 µM | 39.9 µM |  | 46.9 µM |  |  | 50.3 µM |  | > 100 µM |  |  |  | 40.8 µM |  |  |  |  |
| N#Cc1ccc(N=Cc2c([O-])ccc3ccccc23)cc1.[C-]#[O+].[C-]#[O+].[Ir] | 38.1 µM | 27.9 µM | 22.4 µM | 39.1 µM | 27.5 µM | 24.9 µM | 25.7 µM | 20.8 µM |  |  |  |  | 14.1 µM | 9.88 µM |  |  | 21.1 µM | 13.2 µM | 13 µM | 11 µM |
| COC(CN1C=C(Sc2ccccc2)CC1)OC | > 100 µM | > 100 µM | 56.3 µM | 93 µM | > 100 µM | 52.7 µM |  |  |  |  |  |  |  |  |  |  |  |  |  |  |
| COc1ccc(OC)c(C2SCC(=O)N2NC(=O)C(O)c2ccccc2)c1 (stereo unspecified) | > 100 µM | > 100 µM | > 100 µM | > 100 µM | > 100 µM | > 100 µM | > 100 µM | > 100 µM | > 100 µM | > 100 µM | > 100 µM | > 100 µM | > 100 µM | > 100 µM |  |  | > 100 µM | > 100 µM | > 100 µM | > 100 µM |
| COc1ccc2c(c1OC)C(=O)OC2C1c2c(c([N+](=O)[O-])c3c(c2OC)OCO3)CCN1C (stereo unspecified) | > 100 µM |  | > 100 µM | > 100 µM | > 100 µM | > 100 µM | > 100 µM | > 100 µM | > 100 µM | > 100 µM | > 100 µM | > 100 µM |  | > 100 µM | > 100 µM | > 100 µM | > 100 µM | > 100 µM | > 100 µM | > 100 µM |
| Cc1ccc(C2=Nc3ccccc3SC(c3cccc([N+](=O)[O-])c3)C2)cc1 (stereo unspecified) | > 100 µM | > 100 µM |  | > 100 µM | > 100 µM | 38.6 µM | 16.9 µM |  |  | > 100 µM |  | 94.7 µM |  |  |  | > 100 µM |  |  |  |  |
| COCCOCOc1ccc(OCOCCOC)c2c1C(=O)c1ccccc1C2=O | > 100 µM | > 100 µM | > 100 µM | > 100 µM | > 100 µM | > 100 µM | > 100 µM |  |  |  |  |  |  |  |  |  |  |  |  |  |
| Cc1cc2c(c(C(=O)O)c1C)-c1cccc(F)c1C2=O | > 100 µM | > 100 µM | > 100 µM | > 100 µM | > 100 µM | > 100 µM | > 100 µM |  |  |  |  |  |  |  |  |  |  |  |  |  |
| [N-]=[N+]=C1C(=O)C2CC3CC(C2)CC1C3 | > 100 µM | > 100 µM | > 100 µM | > 100 µM | > 100 µM | > 100 µM | > 100 µM |  |  |  |  |  |  |  |  |  |  |  |  |  |
| CC1NC(=O)C(NC(=O)c2cnc3ccccc3n2)COC(=O)C(C(C)C)N(C)C(=O)C2CSSCC(C(=O)N(C)C(C(C)C)C(=O)OCC(NC(=O)c3cnc4ccccc4n3)C(=O)NC(C)C(=O)N2C)N(C)C1=O (stereo unspecified) (I: Quinoxaline2carbonyl-SA[NMeC][NMeV] / II: Quinoxaline2carbonyl-SA[NMeC][NMeV]; ester I:1-II:C, I:C-II:1; disulfide I:3-II:3; configuration not given here) | 2.78 µM |  | 10.2 µM | 6.87 µM |  | < 0.01 µM | > 31.8 µM |  |  |  |  | < 0.01 µM |  |  |  | 0.662 µM |  |  |  |  |
| O=C(NC1CCCC1=O)c1ccccc1 (stereo unspecified) | > 100 µM | > 100 µM |  | > 100 µM | > 100 µM | > 100 µM | > 100 µM |  |  |  |  |  |  |  |  |  |  |  |  |  |
| CCO/C=C1\N=C(c2ccccc2Br)OC1=O | > 100 µM |  | > 100 µM | > 100 µM | > 100 µM | > 100 µM |  |  |  |  |  |  |  |  |  |  |  |  |  |  |
| O=C(Oc1cccnc1)c1ccsc1Nc1ccnc(C(F)(F)F)c1 | > 100 µM | > 100 µM | > 100 µM | 29.5 µM | > 100 µM | > 100 µM | 18.7 µM | 7.68 µM | 24.6 µM | > 100 µM |  |  | 5.24 µM | 3.19 µM | 4.62 µM | > 100 µM | 4 µM | 4.44 µM | 3.91 µM | 25.2 µM |
| COC1O[C@@H]2C[C@H]3C(C)(C)CCC[C@]3(C)C3=CCCC1[C@@]32C (stereo partly specified) | > 100 µM | > 100 µM | > 100 µM |  | > 100 µM | > 100 µM | > 100 µM | > 100 µM | > 100 µM | > 100 µM | > 100 µM | > 100 µM | > 100 µM | > 100 µM |  |  |  | > 100 µM | > 100 µM | > 100 µM |
| COc1cc2nc(NCCCCCNC(=O)c3ccco3)nc(N)c2cc1OC | > 100 µM | > 100 µM |  | > 100 µM | > 100 µM | 54.2 µM | 42.5 µM |  |  |  |  |  |  |  |  |  |  |  |  |  |
